# Measurements as given in PubChem BioAssay AID200 (DTP/NCI, 2004).
# “And” between values parts separate entries of the source, which are not always exact repeats. Identical values can stand only once. Inconclusive results and toxic doses are left out.
# Tested on: B6C3F1 mice, B16 melanoma ip, median survival T/C
# Experiment: NCI In Vivo Anticancer Drug Screen. Data for tumor model B16 Melanoma (intraperitoneal) in B6C3F1 mice
# Conditions: endpoint: median survival time, higher = longer survival
# Procedure, shortened: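 Mice bearing transplanted tumor were dosed with compound or vehicle, and survival was recorded. Activity is expressed as the treated-group measurement (T) divided by the vehicle control measurement (C).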
# [1] = dose: 10.0 mg/kg/injection, schedule: Q01DX009 (ip), vehicle: saline with Tween-80
# [2] = dose: 100.0 mg/kg/injection, schedule: Q01DX009 (ip), vehicle: Klucel (hydroxypropylcellulose) (HPC)
# [3] = dose: 200.0 mg/kg/injection, schedule: Q01DX009 (ip), vehicle: Klucel (hydroxypropylcellulose) (HPC)
# [4] = dose: 3.12 mg/kg/injection, schedule: Q01DX009 (ip), vehicle: saline with Tween-80
# [5] = dose: 6.25 mg/kg/injection, schedule: Q01DX009 (ip), vehicle: saline with Tween-80
# [6] = dose: 12.5 mg/kg/injection, schedule: Q01DX009 (ip), vehicle: saline with Tween-80
# [7] = dose: 25.0 mg/kg/injection, schedule: Q01DX009 (ip), vehicle: saline with Tween-80
# [8] = dose: 50.0 mg/kg/injection, schedule: Q01DX009 (ip), vehicle: saline with Tween-80
# [9] = dose: 1.5 mg/kg/injection, schedule: Q01DX009 (ip), vehicle: saline with Tween-80
# [10] = dose: 3.0 mg/kg/injection, schedule: Q01DX009 (ip), vehicle: saline with Tween-80
# [11] = dose: 100.0 mg/kg/injection, schedule: Q01DX009 (ip), vehicle: saline with Tween-80
# [12] = dose: 200.0 mg/kg/injection, schedule: Q01DX009 (ip), vehicle: saline with Tween-80
# [13] = dose: 50.0 mg/kg/injection, schedule: Q01DX009 (ip), vehicle: Klucel (hydroxypropylcellulose) (HPC)
# [14] = dose: 400.0 mg/kg/injection, schedule: Q01DX009 (ip), vehicle: Klucel (hydroxypropylcellulose) (HPC)
compound,measurement,setting,value
CSc1cc(=O)n2c3ccccc3c3ccnc1c32,T/C,"dose: 0.62 mg/kg/injection, schedule: Q01DX009 (ip), vehicle: saline with Tween-80",96 % of control
same,T/C,"dose: 1.25 mg/kg/injection, schedule: Q01DX009 (ip), vehicle: saline with Tween-80",101 % of control
same,T/C,"dose: 2.5 mg/kg/injection, schedule: Q01DX009 (ip), vehicle: saline with Tween-80",105 % of control
same,T/C,"dose: 5.0 mg/kg/injection, schedule: Q01DX009 (ip), vehicle: saline with Tween-80",109 % of control
same,T/C,[1],114 % of control
O=C1c2ccccc2CCC1(Br)Br,T/C,"dose: 2.5 mg/kg/injection, schedule: Q01DX009 (ip), vehicle: Klucel (hydroxypropylcellulose) (HPC)",107 % of control
same,T/C,"dose: 10.0 mg/kg/injection, schedule: Q01DX009 (ip), vehicle: Klucel (hydroxypropylcellulose) (HPC)",90 % of control
CC12C(=O)C=CCC1=CCC1C2CCC2(O)C(=O)OC3(C)C4CC5(C)C(COC16OC23C5C6=O)C(=O)O4 (centres undefined),T/C,[2],93 % of control
same,T/C,[3],98 % of control
C#CCNC1=C(C)C(=O)C2=C(C1=O)[C@H](COC(N)=O)[C@]1(OC)[C@@H]3N[C@@H]3CN21,T/C,"dose: 0.75 mg/kg/injection, schedule: Q01DX009 (ip), vehicle: distilled water + Tween-80",91 % of control
same,T/C,"dose: 1.5 mg/kg/injection, schedule: Q01DX009 (ip), vehicle: distilled water + Tween-80",98 % of control
same,T/C,"dose: 6.25 mg/kg/injection, schedule: Q01DX009 (ip), vehicle: distilled water + Tween-80",241 % of control
same,T/C,"dose: 12.0 mg/kg/injection, schedule: Q01DX009 (ip), vehicle: distilled water + Tween-80",98 % of control
CC1OC(O[C@H]2C[C@](O)(C(C)O)Cc3c(O)c4c(c(O)c32)C(=O)c2c(O)cccc2C4=O)CC(NC=O)C1O (some centres undefined),T/C,"dose: 0.62 mg/kg/injection, schedule: Q01DX001 (ip), vehicle: water",158 % of control
same,T/C,"dose: 1.25 mg/kg/injection, schedule: Q01DX001 (ip), vehicle: water",185 % of control
same,T/C,"dose: 2.5 mg/kg/injection, schedule: Q01DX001 (ip), vehicle: distilled water + Tween-80",288 % of control
same,T/C,"dose: 2.5 mg/kg/injection, schedule: Q01DX001 (ip), vehicle: water",257 % of control
same,T/C,"dose: 5.0 mg/kg/injection, schedule: Q01DX001 (ip), vehicle: water",170 % of control
Cc1c2cc(Cl)c3ccccc3c2c[n+]2ccccc12,T/C,[4],103 % of control
same,T/C,[5],108 % of control
same,T/C,[6],112 % of control
same,T/C,[7],101 % of control
same,T/C,[8],108 % of control
CC[C@@]1(O)C(=O)OCc2c1cc1n(c2=O)Cc2cc3ccccc3nc2-1,T/C,"dose: 0.1 mg/kg/injection, schedule: Q01DX009 (ip), vehicle: other",108 % of control
same,T/C,[9],174 % of control
same,T/C,[10],189 % of control
O=[N+]([O-])O.O=[N+]([O-])O.[NH-]C1CCCCC1[NH-].[Pt+2] (centres undefined),T/C,"dose: 0.25 mg/kg/injection, schedule: Q01DX009 (ip), vehicle: other",123 % of control
same,T/C,"dose: 1.0 mg/kg/injection, schedule: Q01DX009 (ip), vehicle: other",163 % of control
C[N+](C)=C1C=CC(=C2C=CSC=C2)C=C1,T/C,"dose: 3.0 mg/kg/injection, schedule: Q01DX009 (ip), vehicle: saline",115 % of control
same,T/C,"dose: 6.25 mg/kg/injection, schedule: Q01DX009 (ip), vehicle: saline",116 % of control
Nc1ccc(OCCCc2c(-c3ccccc3)nc(N)[nH]c2=O)cc1,T/C,[7],121 % of control
same,T/C,[8],102 % of control
same,T/C,[11],118 % of control
same,T/C,[12],96 % of control
O=C(Cl)c1ccccc1S(=O)(=O)N(CCOc1ccccc1)c1ccccc1,T/C,[13],90 % of control
same,T/C,[2],94 % of control
same,T/C,[3],90 % of control
CN(C)CCN1C(=O)c2cccc3cc([N+](=O)[O-])cc(c23)C1=O,T/C,"dose: 0.37 mg/kg/injection, schedule: Q01DX009 (ip), vehicle: saline with Tween-80",105 % of control
same,T/C,"dose: 0.75 mg/kg/injection, schedule: Q01DX009 (ip), vehicle: saline with Tween-80",107 % of control
same,T/C,[9],112 % of control
same,T/C,"dose: 1.56 mg/kg/injection, schedule: Q01DX009 (ip), vehicle: saline with Tween-80",117 % of control
same,T/C,[10],102 % of control
same,T/C,"dose: 12.0 mg/kg/injection, schedule: Q01DX009 (ip), vehicle: saline with Tween-80",88 % of control
CC(C)N1C(=O)C=C(c2ccc([N+](=O)[O-])cc2)C1=O,T/C,[4],104 % of control
same,T/C,[5],111 % of control
same,T/C,[6],105 % of control
same,T/C,[7],105 % of control
Oc1ccc(OCc2ccccc2)cc1,T/C,"dose: 12.5 mg/kg/injection, schedule: Q01DX009 (ip), vehicle: Klucel (hydroxypropylcellulose) (HPC)",107 % of control and 100 % of control
same,T/C,"dose: 25.0 mg/kg/injection, schedule: Q01DX009 (ip), vehicle: Klucel (hydroxypropylcellulose) (HPC)",91 % of control and 102 % of control
same,T/C,[13],90 % of control and 96 % of control
same,T/C,[2],100 % of control and 107 % of control
same,T/C,[3],98 % of control [middle of 4 runs]
same,T/C,[14],102 % of control and 94 % of control
BrC1CC(Br)c2c1c1c(c3c2C(Br)CC3Br)C(Br)CC1Br (centres undefined),T/C,[6],108 % of control and 105 % of control
same,T/C,[7],114 % of control and 117 % of control and 123 % of control
same,T/C,[8],114 % of control
same,T/C,[11],118 % of control and 93 % of control
same,T/C,[12],123 % of control
Nc1ncnc2c1ncn2C1OC(COP(=O)(O)OC2C(O)C(COP(=O)(O)OC3C(O)C(COP(=O)(O)OP(=O)(O)OP(=O)(O)O)OC3n3cnc4c(N)ncnc43)OC2n2cnc3c(N)ncnc32)C(O)C1O (centres undefined),T/C,"dose: 0.12 mg/kg/injection, schedule: Q01DX009 (ip), vehicle: distilled water + Tween-80 + alcohol",88 % of control
same,T/C,"dose: 0.25 mg/kg/injection, schedule: Q01DX009 (ip), vehicle: distilled water + Tween-80 + alcohol",91 % of control
same,T/C,"dose: 0.5 mg/kg/injection, schedule: Q01DX009 (ip), vehicle: distilled water + Tween-80 + alcohol",94 % of control
same,T/C,"dose: 1.0 mg/kg/injection, schedule: Q01DX009 (ip), vehicle: distilled water + Tween-80 + alcohol",98 % of control
[Cl][Pt+2][Cl].[NH-]c1ccc([N+](=O)[O-])cc1[NH-],T/C,[1],107 % of control
same,T/C,"dose: 20.0 mg/kg/injection, schedule: Q01DX009 (ip), vehicle: saline with Tween-80",105 % of control
same,T/C,"dose: 40.0 mg/kg/injection, schedule: Q01DX009 (ip), vehicle: saline with Tween-80",118 % of control
same,T/C,"dose: 80.0 mg/kg/injection, schedule: Q01DX009 (ip), vehicle: saline with Tween-80",116 % of control
C=C1C(O)C2(O)OCC34C(CC5C(C)=CC(=O)C(O)C5(C)C23)OC(=O)C(OC(=O)C/C=C/CCCCCCCC)C14 (centres undefined),T/C,"dose: 4.0 mg/kg/injection, schedule: Q01DX009 (ip), vehicle: saline + alcohol",182 % of control
same,T/C,"dose: 5.76 mg/kg/injection, schedule: Q01DX009 (ip), vehicle: saline + Tween-80 + alcohol",160 % of control
same,T/C,"dose: 8.0 mg/kg/injection, schedule: Q01DX009 (ip), vehicle: saline + alcohol",182 % of control
same,T/C,"dose: 9.6 mg/kg/injection, schedule: Q01DX009 (ip), vehicle: saline + Tween-80 + alcohol",197 % of control
same,T/C,"dose: 16.0 mg/kg/injection, schedule: Q01DX009 (ip), vehicle: saline + Tween-80 + alcohol",176 % of control
same,T/C,"dose: 16.0 mg/kg/injection, schedule: Q01DX009 (ip), vehicle: saline + alcohol",192 % of control
COc1ccc2c(c1)-c1nn(CCCN(C)C)c3ccc([N+](=O)[O-])c(c13)N2,T/C,"dose: 1.56 mg/kg/injection, schedule: Q01DX009 (ip), vehicle: water",110 % of control
same,T/C,"dose: 3.12 mg/kg/injection, schedule: Q01DX009 (ip), vehicle: water",116 % of control and 122 % of control
O=C(O)CP(=O)(O)O,T/C,"dose: 12.5 mg/kg/injection, schedule: Q01DX009 (ip), vehicle: saline",100 % of control
same,T/C,"dose: 25.0 mg/kg/injection, schedule: Q01DX009 (ip), vehicle: saline",102 % of control and 107 % of control
same,T/C,"dose: 50.0 mg/kg/injection, schedule: Q01DX009 (ip), vehicle: saline",102 % of control and 106 % of control
same,T/C,"dose: 100.0 mg/kg/injection, schedule: Q01DX009 (ip), vehicle: saline",118 % of control and 121 % of control
same,T/C,"dose: 200.0 mg/kg/injection, schedule: Q01DX009 (ip), vehicle: saline",164 % of control
same,T/C,"dose: 400.0 mg/kg/injection, schedule: Q01DX009 (ip), vehicle: saline",189 % of control and 227 % of control
same,T/C,"dose: 800.0 mg/kg/injection, schedule: Q01DX009 (ip), vehicle: saline",206 % of control and 255 % of control
CC(C)C(NC(=O)CCNC(=O)OCc1ccccc1)C(=O)O (centres undefined),T/C,[2],100 % of control
same,T/C,[3],116 % of control
same,T/C,[14],87 % of control
